Measurements from patent US20250152585A1, “PHARMACEUTICAL COMPOUND” (Duke Street Bio Limited, priority 2022, published 2025).
Like-named read-outs stand apart in the source and are kept apart here.

How the values were obtained:
[1] = molecular target: T1, full length N-terminally FLAG-tagged PARP1 (Homo sapiens, UniProt P09874); test: PARP1 probe displacement HTRF assay; conditions: for Selectivity: PARP1 over PARP2, ratio Kd (PARP2)/Kd (PARP1); for Kd: read-out: PARP1 HTRF, binned Kd
[2] = molecular target: T1, full length N-terminally FLAG-tagged PARP1; test: PARP1 biochemical DELFIA assay (auto-PARylation); parameters: recombinant full length human N-terminally FLAG-tagged PARP1
[3] = molecular target: T2, N-terminally FLAG-tagged PARP2 (amino acids 1-583) (Homo sapiens, UniProt Q9UGN5); test: PARP2 probe displacement HTRF assay; format: binding; conditions: binned Kd
T2 construct: N-terminally FLAG-tagged PARP2 (amino acids 1-583)
Protocol: Data analysis was performed identical as for PARP1.

[4] = binned IC50, PARP1 biochemical DELFIA assay
[5] = binned IC50, biochemical auto-PARylation assay

T2 sequence (Q9UGN5 whole entry, the tested form may be a part): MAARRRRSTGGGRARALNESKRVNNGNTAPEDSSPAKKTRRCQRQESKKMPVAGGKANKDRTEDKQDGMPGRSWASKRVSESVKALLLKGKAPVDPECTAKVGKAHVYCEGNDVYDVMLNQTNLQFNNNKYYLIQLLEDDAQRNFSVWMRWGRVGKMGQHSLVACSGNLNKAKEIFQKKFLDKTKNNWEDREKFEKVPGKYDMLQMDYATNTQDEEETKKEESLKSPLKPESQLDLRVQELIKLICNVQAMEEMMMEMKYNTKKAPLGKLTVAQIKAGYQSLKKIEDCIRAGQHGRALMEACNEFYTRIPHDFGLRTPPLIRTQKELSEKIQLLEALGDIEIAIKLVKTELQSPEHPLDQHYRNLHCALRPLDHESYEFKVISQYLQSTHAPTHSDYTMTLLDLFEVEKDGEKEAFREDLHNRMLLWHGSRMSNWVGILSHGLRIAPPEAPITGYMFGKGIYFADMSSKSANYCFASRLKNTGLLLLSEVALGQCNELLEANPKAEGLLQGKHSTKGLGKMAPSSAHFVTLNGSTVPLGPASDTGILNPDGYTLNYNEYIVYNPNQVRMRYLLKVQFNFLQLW
T1 sequence (P09874 whole entry): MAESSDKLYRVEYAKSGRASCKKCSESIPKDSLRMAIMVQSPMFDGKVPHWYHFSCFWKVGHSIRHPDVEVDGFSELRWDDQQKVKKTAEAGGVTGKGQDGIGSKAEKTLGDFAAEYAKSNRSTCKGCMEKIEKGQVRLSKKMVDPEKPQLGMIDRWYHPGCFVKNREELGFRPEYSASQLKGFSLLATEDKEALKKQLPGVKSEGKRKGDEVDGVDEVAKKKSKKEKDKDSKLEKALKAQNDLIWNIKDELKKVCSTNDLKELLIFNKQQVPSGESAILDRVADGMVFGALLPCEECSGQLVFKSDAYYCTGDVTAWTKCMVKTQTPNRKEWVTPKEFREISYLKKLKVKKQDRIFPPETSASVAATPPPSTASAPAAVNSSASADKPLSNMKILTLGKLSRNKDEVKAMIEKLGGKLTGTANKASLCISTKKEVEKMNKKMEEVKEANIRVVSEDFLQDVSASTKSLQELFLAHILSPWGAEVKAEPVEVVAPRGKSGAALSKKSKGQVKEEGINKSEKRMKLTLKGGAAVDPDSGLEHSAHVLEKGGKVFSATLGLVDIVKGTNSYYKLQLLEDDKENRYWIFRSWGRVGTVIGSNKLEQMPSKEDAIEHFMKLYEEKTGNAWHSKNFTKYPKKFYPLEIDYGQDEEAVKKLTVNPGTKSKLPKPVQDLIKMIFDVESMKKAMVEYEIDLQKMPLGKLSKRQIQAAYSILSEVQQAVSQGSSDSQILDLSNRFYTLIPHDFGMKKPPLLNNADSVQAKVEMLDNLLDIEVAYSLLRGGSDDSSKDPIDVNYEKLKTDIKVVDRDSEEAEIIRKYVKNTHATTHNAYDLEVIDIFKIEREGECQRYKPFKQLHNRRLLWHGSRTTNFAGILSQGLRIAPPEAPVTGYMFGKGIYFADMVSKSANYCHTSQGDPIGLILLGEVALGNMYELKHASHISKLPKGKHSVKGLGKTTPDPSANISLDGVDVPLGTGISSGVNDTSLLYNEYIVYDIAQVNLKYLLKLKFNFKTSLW

## CNC(=O)c1ccc(N2CCC(N3CCCC(c4nc5ccccc5c(=O)[nH]4)C3)CC2)c(C(F)F)n1 (racemic) [Compound 156rac]
[1]; probe displacement HTRF
  Selectivity: ++ (++ indicates a value of 50 to less than 100)
[1]; PARP1 probe displacement HTRF
  Kd: 10 to 100 nM
[2]; [4]
  IC50: 10 to 100 nM
[3]; PARP2 probe displacement HTRF
  Kd: > 10000 nM

## CCc1ccc(C2CCN(C3CCN(c4ccc(C(=O)NCCOC)nc4)CC3)C2)[nH]c1=O (racemic) [Compound 160rac]
[1]; probe displacement HTRF
  Selectivity: +++ (+++ indicate a value of at least 100)
[1]; PARP1 probe displacement HTRF
  Kd: < 10 nM
[2]; [4]
  IC50: < 10 nM
[3]; PARP2 probe displacement HTRF
  Kd: 1000 to 10000 nM

## CNC(=O)c1ccc(N2CCC(N3CCC(c4nc5c(C)cn(C)c5c(=O)[nH]4)C3)CC2)cn1 (racemic) [Compound 163rac]
[1]; probe displacement HTRF
  Selectivity: +++ (+++ indicate a value of at least 100)
[1]; PARP1 probe displacement HTRF
  Kd: < 10 nM
[2]; [4]
  IC50: < 10 nM
[3]; PARP2 probe displacement HTRF
  Kd: 100 to 1000 nM

## CCc1ccc(C2CCN(C3CCN(c4ccc(C(N)=O)nc4)CC3)C2)[nH]c1=O (racemic) [Compound 166rac]
[1]; probe displacement HTRF
  Selectivity: +++ (+++ indicate a value of at least 100)
[1]; PARP1 probe displacement HTRF
  Kd: < 10 nM
[2]; [4]
  IC50: < 10 nM
[3]; PARP2 probe displacement HTRF
  Kd: 1000 to 10000 nM

## CCNC(=O)c1ccc(N2CCC(N3CCC(c4ccc(CC)c(=O)[nH]4)C3)CC2)cn1 (racemic) [Compound 171rac]
[1]; probe displacement HTRF
  Selectivity: +++ (+++ indicate a value of at least 100)
[1]; PARP1 probe displacement HTRF
  Kd: < 10 nM
[2]; [4]
  IC50: < 10 nM
[3]; PARP2 probe displacement HTRF
  Kd: 100 to 1000 nM

## CNC(=O)c1ccc(N2CCC(N3CCCC(c4nc5onc(C(F)(F)F)c5c(=O)[nH]4)C3)CC2)cn1 (racemic) [Compound 191rac]
[1]; probe displacement HTRF
  Selectivity: + (+ indicates a value of 10 to less than 50)
[1]; PARP1 probe displacement HTRF
  Kd: 100 to 1000 nM
[2]; [4]
  IC50: 100 to 1000 nM
[3]; PARP2 probe displacement HTRF
  Kd: > 10000 nM

## CNC(=O)c1cc(C)c(N2CCC(N3CCC(c4cc5ccccc5c(=O)[nH]4)C3)CC2)cn1 (racemic) [Compound 195rac]
[1]; probe displacement HTRF
  Selectivity: +++ (+++ indicate a value of at least 100)
[1]; PARP1 probe displacement HTRF
  Kd: < 10 nM
[2]; [4]
  IC50: < 10 nM
[3]; PARP2 probe displacement HTRF
  Kd: 100 to 1000 nM

## CNC(=O)c1ccc(N2CCC(N3CCC(c4cc5nccc(N)c5c(=O)[nH]4)C3)CC2)cn1 (racemic) [Compound 200rac]
[1]; probe displacement HTRF
  Selectivity: +++ (+++ indicate a value of at least 100)
[1]; PARP1 probe displacement HTRF
  Kd: 10 to 100 nM
[2]; [4]
  IC50: 10 to 100 nM
[3]; PARP2 probe displacement HTRF
  Kd: > 10000 nM

## CNC(=O)c1ccc(N2CCC(N3CCC(c4cc5cccnc5c(=O)[nH]4)C3)CC2)cn1 (racemic) [Compound 203rac]
[1]; probe displacement HTRF
  Selectivity: +++ (+++ indicate a value of at least 100)
[1]; PARP1 probe displacement HTRF
  Kd: < 10 nM
[2]; [4]
  IC50: < 10 nM
[3]; PARP2 probe displacement HTRF
  Kd: > 10000 nM

## CNC(=O)c1ccc(N2CCC(N3CCC(c4cc5cnccc5c(=O)[nH]4)C3)CC2)cn1 (racemic) [Compound 204rac]
[1]; probe displacement HTRF
  Selectivity: +++ (+++ indicate a value of at least 100)
[1]; PARP1 probe displacement HTRF
  Kd: < 10 nM
[2]; [4]
  IC50: < 10 nM
[3]; PARP2 probe displacement HTRF
  Kd: > 10000 nM

## CNC(=O)c1cc(C)c(N2CCC(N3CCC(c4cc5ccncc5c(=O)[nH]4)C3)CC2)c(C)n1 (racemic) [Compound 211rac]
[1]; probe displacement HTRF
  Selectivity: +++ (+++ indicate a value of at least 100)
[1]; PARP1 probe displacement HTRF
  Kd: < 10 nM
[2]; [4]
  IC50: < 10 nM
[3]; PARP2 probe displacement HTRF
  Kd: 100 to 1000 nM

## CNC(=O)c1ncc(N2CCC(N3CCC(c4cc5cccc(F)c5c(=O)[nH]4)C3)CC2)cn1 (racemic) [Compound 215rac]
[1]; probe displacement HTRF
  Selectivity: − (− indicates a value of less than 10)
[1]; PARP1 probe displacement HTRF
  Kd: 10 to 100 nM
[2]; [4]
  IC50: 10 to 100 nM
[3]; PARP2 probe displacement HTRF
  Kd: 100 to 1000 nM

## CNC(=O)c1ccc(N2CCC(N3CCC(c4nc5c(c(=O)[nH]4)NCCN5)C3)CC2)cn1 (racemic) [Compound 226rac]
[1]; probe displacement HTRF
  Selectivity: ++ (++ indicates a value of 50 to less than 100)
  Kd: 10 to 100 nM
[2]; [5]
  IC50: 10 to 100 nM
[3]; probe displacement HTRF
  Kd: > 10000 nM

## O=C(NC1COC1)c1ccc(N2CCC(N3CCC(c4nc5ccccc5c(=O)[nH]4)C3)CC2)cn1 (racemic) [Compound 229rac]
[1]; probe displacement HTRF
  Selectivity: +++ (+++ indicate a value of at least 100)
  Kd: < 10 nM
[2]; [5]
  IC50: 10 to 100 nM
[3]; probe displacement HTRF
  Kd: 100 to 1000 nM

## CNC(=O)c1ccc(N2CCC(N3CCC(c4ccc(CCF)c(=O)[nH]4)C3)CC2)cn1 (racemic) [Compound 231rac]
[1]; probe displacement HTRF
  Selectivity: +++ (+++ indicate a value of at least 100)
  Kd: < 10 nM
[2]; [5]
  IC50: < 10 nM
[3]; probe displacement HTRF
  Kd: 1000 to 10000 nM
